Reference: the Kinase Knowledgebase extract (Sharma et al. 2016)

Biological target: MAPK14 (human) (UniProt Q16539)
Experiment: Inhibition of MAPK14 Kinase Activity
Details: for inhibition: concentration not given here

MAPK14 (human), sequence (Q16539 whole entry, looked up): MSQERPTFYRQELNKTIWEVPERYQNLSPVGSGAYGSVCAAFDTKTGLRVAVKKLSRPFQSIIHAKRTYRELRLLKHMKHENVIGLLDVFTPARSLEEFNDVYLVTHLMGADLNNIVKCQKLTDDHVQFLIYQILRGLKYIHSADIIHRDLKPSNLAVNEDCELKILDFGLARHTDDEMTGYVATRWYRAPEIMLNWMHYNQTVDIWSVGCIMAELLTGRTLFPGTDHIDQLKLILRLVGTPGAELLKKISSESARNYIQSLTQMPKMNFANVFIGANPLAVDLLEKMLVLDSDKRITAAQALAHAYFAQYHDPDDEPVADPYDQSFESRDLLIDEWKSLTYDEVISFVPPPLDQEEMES

| Compound | IC50 [µM] | inhibition [%] |
| --- | --- | --- |
| CC(C)(C)c1cc(C(=O)N2CCNC(=O)CC2)c(NC(=O)Nc2ccc3ncoc3c2)s1 |  | 76 to 100 |
| CC(C)(C)c1cc(C(=O)N2CCNS(=O)(=O)CC2)c(NC(=O)Nc2ccc(C#N)cc2C(F)(F)F)s1 |  | 76 to 100 |
| CNC(=O)CN1CCN(C(=O)c2cc(C(C)(C)C)sc2NC(=O)Nc2cccc(Cl)c2Cl)C(C)(C)C1=O | < 5 |  |
| CC(C)(C)c1cc(C(=O)N2CCN(C(=O)CCCC[C@@H]3SC[C@@H]4NC(=O)N[C@@H]43)CC2)c(NC(=O)Nc2cccc(Cl)c2Cl)s1 | < 5 |  |
| CC(C)(C)c1cc(C(=O)N2CCNC(=O)C2(C)C)c(NC(=O)Nc2ccc3c(c2Cl)OCO3)s1 | < 5 |  |
| COC(=O)CN1CCN(C(=O)c2[nH]c(C(C)(C)C)cc2NC(=O)Nc2cccc(Cl)c2Cl)C(C)(C)C1=O | < 5 |  |
| CCC1(C)C(=O)NCCN1C(=O)c1cc(C(C)(C)C)sc1NC(=O)Nc1cccc(Cl)c1Cl (configuration not stated) | < 5 |  |
| CN(C)CCNC(=O)CN1CCN(C(=O)c2cc(C(C)(C)C)[nH]c2NC(=O)Nc2cccc(Cl)c2Cl)C(C)(C)C1=O | < 5 |  |
| CC(C)(C)c1cc(C(=O)N2CCC(=O)N(CC(N)=O)CC2)c(NC(=O)Nc2cccc(Cl)c2Cl)s1 |  | 76 to 100 |
| CC(C)(C)c1cc(C(=O)N2CCN(CC(=O)NO)C(=O)C2(C)C)c(NC(=O)Nc2ccc(F)c(Cl)c2Cl)s1 | < 5 |  |
| CC(C)(C)c1cc(C(=O)N2CCNC(=O)C2(C)C)c(NC(=O)Nc2ccc(C#N)c3ccccc23)s1 | < 5 |  |
| CN(C)CCN1CCN(C(=O)c2sc(C(C)(C)C)cc2NC(=O)Nc2ccc(F)c(Cl)c2Cl)CCC1=O | < 5 |  |
| CN(C)CCNC(=O)CN1CCN(C(=O)c2sc(C(C)(C)C)cc2NC(=O)Nc2cccc(Cl)c2Cl)C(C)(C)C1=O | < 5 |  |
| CC(C)(C)c1cc(NC(=O)Nc2ccc(F)c(Cl)c2Cl)c(C(=O)N2CCNC(=O)C2(C)CCO)s1 (configuration not stated) | < 5 |  |
| O=C(Nc1cc(C(=O)N2CCS(=O)(=O)CC2)cc(C(F)(F)F)c1)Nc1cccc(Cl)c1Cl | < 5 |  |
| CCC1(C)C(=O)N(CC(=O)NCCN2CCCC2)CCN1C(=O)c1cc(C(C)(C)C)sc1NC(=O)Nc1cccc(Cl)c1Cl (configuration not stated) | < 5 |  |
| CON(C)C(=O)CN1CCN(C(=O)c2cc(C(C)(C)C)sc2NC(=O)Nc2ccc(F)c(F)c2Cl)CCC1=O | < 5 |  |
| CON(C)C(=O)CN1CCN(C(=O)c2cc(C(C)(C)C)sc2NC(=O)Nc2ccc(F)cc2Cl)C(C)(C)C1=O | < 5 |  |
| CC(C)(C)c1cc(C(=O)N2CCCC(O)C2)c(NC(=O)Nc2cccc(Cl)c2Cl)s1 (configuration not stated) | < 5 |  |
| CC(C)(C)c1cc(C(=O)N2CCN(CC(=O)NCC(O)CO)C(=O)C2(C)C)c(NC(=O)Nc2cccc(Cl)c2Cl)s1 (configuration not stated) | < 5 |  |
| COC(=O)c1ccc(NC(=O)Nc2sc(C(C)(C)C)cc2C(=O)N2CCNC(=O)CC2)c(Cl)c1Cl | < 5 |  |
| CC(C)(C)c1cc(C(=O)N2CCNC(=O)CC2)c(NC(=O)Nc2ccccc2Br)s1 | < 5 |  |
| CC(C)(C)c1cc(C(=O)N2CCNC(=O)C2(C)C)c(NC(=O)Nc2ccc(OC(F)F)c(Cl)c2Cl)s1 | < 5 |  |
| CN(C)CCN1CCN(C(=O)c2cc(C(C)(C)C)sc2NC(=O)Nc2ccc(F)cc2Cl)CCC1=O | < 5 |  |
| CC(C)(C)c1cc(C(=O)N2CCS(=O)(=O)CC2)c(NC(=O)Cc2cccc(Cl)c2Cl)s1 | < 5 |  |
| CC(C)(C)c1cc(C(=O)N2CCNC(=O)C2CC(N)=O)c(NC(=O)Nc2cccc(Cl)c2Cl)s1 (configuration not stated) | < 5 |  |

| Compound | IC50 [µM] | inhibition [%] |
| --- | --- | --- |
| CC(C)(C)c1cc(C(=O)N2CCNC(=O)C2(C)C)c(NC(=O)Nc2ccc(F)c(Cl)c2Cl)s1 | < 5 |  |
| Cn1c(C(C)(C)C)cc(NC(=O)Nc2cccc(Cl)c2Cl)c1C(=O)N1CCNC(=O)C1(C)C | < 5 |  |
| CC(C)(C)c1cc(C(=O)N2CCNC(=O)CC2)c(NC(=O)Nc2ccccc2C(F)(F)F)s1 | < 5 |  |
| COCCOCCN1CCN(C(=O)c2cc(C(C)(C)C)sc2NC(=O)Nc2cccc(Cl)c2Cl)CCC1=O |  | 76 to 100 |
| CN(C)CCCNC(=O)CN1CCN(C(=O)c2cc(C(C)(C)C)sc2NC(=O)Nc2cccc(Cl)c2Cl)C(C)(C)C1=O | < 5 |  |
| CC(C)(C)c1cc(C(=O)N2CCNC(=O)C2(C)C)c(NC(=O)Nc2cccc3c2OCO3)s1 | < 5 |  |
| CN(C)CCN1CCN(C(=O)c2cc(C(C)(C)C)sc2NC(=O)Nc2cccnc2Cl)C(C)(C)C1=O | < 5 |  |
| CN(C)CCN1CCN(C(=O)c2[nH]c(C(C)(C)C)cc2NC(=O)Nc2cccc(Cl)c2Cl)CCC1=O | < 5 |  |
| CC(C)(C)c1nc(C(=O)N2CCNC(=O)CC2)c(NC(=O)Nc2cccc(Cl)c2Cl)s1 | < 5 |  |
| CC1(C)C(=O)NCCN1C(=O)c1oc(C(F)(F)F)cc1NC(=O)Nc1ccc(F)c(Cl)c1Cl | < 5 |  |
| COC(=O)c1ccc(NC(=O)Nc2cc(C(C)(C)C)sc2C(=O)N2CCNC(=O)C2(C)C)c(Cl)c1 | < 5 |  |
| O=C(Nc1cc(C(F)(F)F)ccc1C(=O)N1CCS(=O)(=O)CC1)Nc1cccc(Cl)c1Cl | < 5 |  |
| CC(C)(C)c1cc(NC(=O)Nc2ccc(Cl)c(Cl)c2)c(C(=O)N2CCNC(=O)CC2)s1 |  | 76 to 100 |
| CC(C)(C)c1cc(C(=O)N2CCC(=O)N(CCN)CC2)c(NC(=O)Nc2cccc(Cl)c2Cl)s1 | < 5 |  |
| CN(C)CCNC(=O)CN1CCN(C(=O)c2nc(C(C)(C)C)sc2NC(=O)Nc2cccc(Cl)c2Cl)C(C)(C)C1=O | < 5 |  |
| CC1(C)OCC(CNC(=O)CN2CCN(C(=O)c3cc(C(C)(C)C)sc3NC(=O)Nc3cccc(Cl)c3Cl)C(C)(C)C2=O)O1 (configuration not stated) | < 5 |  |
| CCC(C)(C)c1cc(NC(=O)Nc2cccc(Cl)c2Cl)c(C(=O)N2CCNC(=O)C2(C)C)[nH]1 | < 5 |  |
| CN(C)CCN1CCN(C(=O)c2cc(C(C)(C)C)sc2NC(=O)Nc2ccccc2C(C)(C)C)C(C)(C)C1=O | < 5 |  |
| CN(C)CCN1CCN(C(=O)c2cc(C(C)(C)C)sc2NC(=O)Nc2ccccc2C(F)(F)F)CCC1=O | < 5 |  |
| CC(C)(C)c1cc(C(=O)N2CCNC(=O)C2(C)CC(N)=O)c(NC(=O)Nc2cccc(Cl)c2Cl)s1 (configuration not stated) | < 5 |  |
| CC(C)(C)c1cc(NC(=O)Nc2cccc(Cl)c2Cl)c(C(=O)N2CCS(=O)(=O)CC2)o1 | < 5 |  |
| Cc1ccccc1NC(=O)Nc1sc(C(C)(C)C)cc1C(=O)N1CCN(CCN(C)C)C(=O)C1(C)C | < 5 |  |
| CONC(=O)CC1(C)C(=O)NCCN1C(=O)c1cc(C(C)(C)C)sc1NC(=O)Nc1ccc(F)c(Cl)c1Cl (configuration not stated) | < 5 |  |
| COC(=O)CCN1CCN(C(=O)c2cc(C(C)(C)C)sc2NC(=O)Nc2cccc(Cl)c2Cl)C(C)(C)C1=O | < 5 |  |
| CN(C)C(=O)CN1CCN(C(=O)c2cc(C(C)(C)C)sc2NC(=O)Nc2cccc(Cl)c2Cl)C(C)(C)C1=O | < 5 |  |

More lines, now with the values ahead:

| IC50 [µM] | inhibition [%] | Compound |
| --- | --- | --- |
| < 5 |  | CN(C)CCNC(=O)CN1CCN(C(=O)c2cc(C(C)(C)C)sc2NC(=O)Nc2ccc(F)c(Cl)c2Cl)C(C)(C)C1=O |
| < 5 |  | CC(C)(C)c1cc(C(=O)N2CCNC(=O)C2(C)C)c(NC(=O)Nc2cccnc2Cl)s1 |
| < 5 |  | C[C@@H]1C(=O)NCCN1C(=O)c1cc(C(C)(C)C)sc1NC(=O)Nc1cccc(Cl)c1Cl |
| < 5 |  | CC(C)(C)c1cc(C(=O)N2CCNC(=O)CC2)c(NC(=O)Nc2ccc(Cl)cc2Cl)s1 |
| < 5 |  | CN(C)CCN1CCN(C(=O)c2cc(C(C)(C)C)sc2NC(=O)Nc2ccccc2C(C)(C)C)CCC1=O |
| < 5 |  | CN1CCN(C(=O)c2cc(C(C)(C)C)sc2NC(=O)Nc2cccc(Cl)c2Cl)C(C)(C)C1=O |
| < 5 |  | CC(C)(C)c1cc(C(=O)N2CCNC(=O)CC2)c(NC(=O)Nc2ccc(OC(F)F)c(Cl)c2Cl)s1 |
| < 5 |  | CC(C)(C)c1cc(C(=O)N2CCN(CCC(=O)O)C(=O)C2(C)C)c(NC(=O)Nc2cccc(Cl)c2Cl)s1 |
| < 5 |  | CC(C)(C)c1cc(C(=O)N2CCNC(=O)CC2)c(NC(=O)Nc2cccc3c2OCO3)s1 |
| < 5 |  | CN1CCN(C(=O)c2oc(C(C)(C)C)cc2NC(=O)Nc2cccc(Cl)c2Cl)CCS1(=O)=O |
| < 5 |  | Cc1c(Cl)cccc1NC(=O)Nc1sc(C(C)(C)C)cc1C(=O)N1CCNC(=O)C1(C)CCO (configuration not stated) |
| < 5 |  | CN(C)CCN1CCN(C(=O)c2sc(C(C)(C)C)cc2NC(=O)Nc2cccc(Cl)c2Cl)C(C)(C)C1=O |
| < 5 |  | CON(C)C(=O)CC1(C)C(=O)NCCN1C(=O)c1cc(C(C)(C)C)sc1NC(=O)Nc1ccc(F)c(Cl)c1Cl (configuration not stated) |
| < 5 |  | COc1ccc(CN2CCN(C(=O)c3cc(C(C)(C)C)sc3NC(=O)Nc3cccc(Cl)c3Cl)C(C)(C)C2=O)cc1 |
| < 5 |  | CN(C)CCN1CCN(C(=O)c2nc(C(C)(C)C)sc2NC(=O)Nc2cccc(Cl)c2Cl)CCC1=O |
| < 5 |  | CC(C)(C)c1cc(C(=O)N2CCNC(=O)CC2)c(NC(=O)Nc2cccc(Cl)c2Cl)[nH]1 |

| IC50 [µM] | inhibition [%] | Compound |
| --- | --- | --- |
| < 5 |  | CCC(C)(C)c1cc(NC(=O)Nc2ccc(F)c(Cl)c2Cl)c(C(=O)N2CCNC(=O)C2(C)C)[nH]1 |
| < 5 |  | CC(C)(C)c1cc(C(=O)N2CCNC(=O)C2(C)C)c(NC(=O)Nc2ccc3c(c2)OCO3)s1 |
| < 5 |  | CN(C)CCN1CCN(C(=O)c2sc(C(C)(C)C)cc2NC(=O)Nc2ccc(F)c(Cl)c2Cl)C(C)(C)C1=O |
| < 5 |  | CC(C)(C)c1cc(C(=O)N2CCS(=O)(=O)CC2)c(NC(=O)Nc2ccc3c(c2Cl)OCO3)s1 |
| < 5 |  | CN(C)CCN1CCN(C(=O)c2cc(C(C)(C)C)sc2NC(=O)Nc2ccc(F)c(Cl)c2Cl)C(C)(C)C1=O |
| < 5 |  | CC(C)(C)c1cc(NC(=O)Nc2cccc(Cl)c2Cl)c(C(=O)N2CCNC(=O)CC2)[nH]1 |
| < 5 |  | CON(C)C(=O)CN1CCN(C(=O)c2cc(C(C)(C)C)sc2NC(=O)Nc2ccc(F)c(F)c2Cl)C(C)(C)C1=O |
| < 5 |  | Cc1cccc(NC(=O)Nc2sc(C(C)(C)C)cc2C(=O)N2CCNC(=O)C2(C)C)c1Cl |
| < 5 |  | CC1(C)OCC(CN2CCN(C(=O)c3nc(C(C)(C)C)sc3NC(=O)Nc3cccc(Cl)c3Cl)CCC2=O)O1 (configuration not stated) |
| < 5 |  | CONC(=O)CN1CCN(C(=O)c2cc(C(C)(C)C)sc2NC(=O)Nc2cccc(Cl)c2Cl)C(C)(C)C1=O |
| < 5 |  | CN(C)CCNC(=O)CN1CCN(C(=O)c2cc(C(C)(C)C)sc2NC(=O)Nc2ccc(F)cc2Cl)C(C)(C)C1=O |
| < 5 |  | CC(C)(C)c1nc(C(=O)N2CCC(=O)N(CCN)CC2)c(NC(=O)Nc2cccc(Cl)c2Cl)s1 |
| < 5 |  | CC(C)(C)c1cc(C(=O)N2CCN(CCC(=O)N(CCO)CCO)C(=O)C2(C)C)c(NC(=O)Nc2cccc(Cl)c2Cl)s1 |
| < 5 |  | COc1ccccc1NC(=O)Nc1sc(C(C)(C)C)cc1C(=O)N1CCC(=O)N(CCN(C)C)CC1 |
| < 5 |  | COc1ccc(CC(=O)N2CCN(C(=O)c3cc(C(C)(C)C)sc3NC(=O)Nc3cccc(Cl)c3Cl)CC2)cc1 |
